Converted amounts (≈) assume the structure as drawn. “And” between values parts separate entries of the source, which are not always exact repeats. Equal values may be shown once. Read-outs that look alike come from different tables or passages of the source.
Columns and labels:
C. albicans CBS 562 = assay: Sorbitol assay (cell wall mechanism), microdilution; assay type: cell-based, Candida albicans; conditions: Candida albicans
Description: (1) Sorbitol Assay. The microdilution technique was performed in the presence of sorbitol (D-sorbitol, anhydrous) (INLAB laboratory), to determine the mode of action of the compounds on the cell wall of C. albicans CBS 562. For this test, the inoculum was prepared with sorbitol to a final concentration of 0.8 M. The plates were incubated at 35 ± 2°C, and readings were taken 24 h and 48 h after incubation. Caspofungin was used as positive control at an initial concentration of 5 mg/mL [68–70].

HCT116 = assay: Cytotoxicity assay, alamar blue test; assay type: cell-based, human; conditions: value (95% confidence interval)
Description: (§1) HepG2 cells (human hepatocellular carcinoma), HCT116 (human colon carcinoma), HL-60 (human promyelocytic leukemia), and MRC5 (human lung fibroblast) obtained from the ATCC (Manassas, VA, USA) were used. Cells were cultured in cell culture bottles (75 cm 3, 250 mL volume), and media used were RPMI 1640 and supplemented with 10% fetal bovine serum. Cells were maintained in incubators with 5% CO2 atmosphere at 37°C. Cellular growth was monitored daily with the use of an inversion microscope. The medium was changed whenever cell growth reached the necessary confluence for nutrient renewal. For the maintenance of adhered cells, trypsin (0.25%) was used for the cells to detach from the walls of the bottles.
(§2) To assess the cytotoxicity of the substances, the alamar blue test was performed after 72 h of exposure with the test substances. Alamar blue, known as resazurin [62], is a fluorescent/colorimetric indicator with redox properties. The reduction in alamar blue reflects cell proliferation. This was initially used to indicate cell growth and/or viability in monitoring lymphocyte proliferation and currently has several applications. Initially, cells were plated in 96-well plates (100 μL/well of a solution of 0.3 × 10^6 cells/mL for cells in suspension and 0.7 × 10^5 cells/mL for adhered cells). After 24 h of incubation, the test substances dissolved in DMSO were added to each well and incubated for 72 h. Doxorubicin was used as a positive control. The negative control received the same amount of DMSO. Four hours before the end of the incubation period, 20 μL of the stock solution (0.312 mg/mL) of alamar blue (resazurin) was added to each well. Absorbances were measured at wavelengths of 570 nm (reduced) and 600 nm (oxidized) using a plate reader.

HL-60 = assay: Cytotoxicity assay, alamar blue test; assay type: cell-based, human; conditions: value (95% confidence interval), read-out: IC50 HL60
Description: as §1, §2

HepG2 cells = assay: Cytotoxicity assay, alamar blue test; assay type: cell-based, human; conditions: value (95% confidence interval)
Description: as §1, §2

MRC5 = assay: Cytotoxicity assay, alamar blue test (healthy cell line); assay type: cell-based, human; conditions: value (95% confidence interval)
Description: as §1, §2

C. albicans = assay: Ergosterol test (plasma membrane mechanism), microdilution; assay type: cell-based, Candida albicans
Description: (2) Ergosterol Test. The test of the compounds was performed using the microdilution technique, as previously described, in the presence of exogenous ergosterol at 400 μg/mL. Nystatin was used as positive control. The plates were incubated at 35 ± 2°C, and readings were taken at 24 and 48 h.

Candida krusei CBS 573 = assay: Minimum fungicide concentration (MFC); assay type: cell-based; conditions: ≥ 4 fungistatic or <4 fungicide
Description: (§3) Antifungal activity evaluations were performed using references strains of Candida spp., obtained from the Centraalbureau voor Schimmelcultures (CBS, Ultrecht, Netherlands): Candida albicans CBS 562, Candida tropicalis CBS 94, and Candida krusei CBS 573. Nystatin, Tween 80%, DMSO, caspofungin diacetate, and ergosterol were obtained from Sigma-Aldrich® (St. Louis, MO, EUA) and sorbitol (D-sorbitol anhydrous) from INLAB® (São Paulo, Brazil). All assays were performed in triplicate in three independent experiments. The culture medium used for maintenance of the microorganisms was Agar Sabouraud Dextrose (ASD). Inoculants were adjusted to a final concentration of 2.5 × 10^3 CFU/mL (Clinical and Laboratory Standards Institute, 2002). […]
(§4) The minimum fungicide concentration (MFC) of the compounds was obtained after the interpretation of the MIC. Three (3) aliquots of 30 μL of supernatant were removed from the wells (where complete inhibition of fungal growth was analyzed) and placed in Petri dishes containing 15 mL of agar Sabouraud dextrose. The plates were incubated at 35 ± 2°C for 24 h for visual counting of colony forming units. To determine whether the compounds had fungistatic (MFC/MIC ≥ 4) or fungicidal (MFC/MIC < 4) activity, the MFC/MIC ratio was calculated.

Candida albicans CBS 562 = assay: Minimum fungicide concentration (MFC); assay type: cell-based; conditions: ≥ 4 fungistatic or <4 fungicide
Description: as §3, §4

[1] = system: Candida tropicalis CBS 94; assay: Minimum fungicide concentration (MFC); assay type: cell-based; conditions: ≥ 4 fungistatic or <4 fungicide
Description: as §3, §4

[2] = system: Candida strains (Candida albicans, C. tropicalis, and C. krusei); assay: Antifungal evaluation (MIC/MFC), statements for all Candida strains; assay type: cell-based, Candida spp.; conditions: stated for all Candida strains
Description: The antifungal activity (Table 2) of the ten amides was assessed via the minimum inhibitory concentration (MIC) which was determined using the microdilution methods against three species of Candida strains (Candida albicans, C. tropicalis, and C. krusei).
as §3
MIC was determined by the microdilution technique, as previously described by the adapted Clinical and Laboratory Standards Institute (CLSI, 2002) method. The compounds were subjected to the microdilution technique in 96-well plates, with U bottom. The samples were dissolved with DMSO and sterile distilled water (up to 1.0 mL). Through serial dilutions, concentrations of the evaluated compounds ranging from 1000 μg/mL to 7.8 μg/mL. The culture sterility medium, the evaluated substances, and the microbial growth were carried out in parallel. The plates were closed and subjected to a temperature of 35 ± 2°C for 24 h. 1% TTC (2,3,5-triphenyl tetrazolium chloride, Sigma-Aldrich®, St. Louis, MO, EUA) was added to each well to confirm the presence of viable microorganisms. MIC was defined as the lowest concentration of the test substance that inhibits visible microbial growth.
as §4, with “units.” for “units. To determine whether the compounds had fungistatic (MFC/MIC ≥ 4) or fungicidal (MFC/MIC < 4) activity, the MFC/MIC ratio was calculated.”

Molecule | IC50 (HCT116; Homo sapiens, HCT-116, 72 h) | IC50 (HL-60; Homo sapiens, HL-60, 72 h) | IC50 (HepG2 cells; Homo sapiens, HepG2, 72 h) | IC50 (MRC5; Homo sapiens, MRC5, 72 h) | melting point [°C] | MIC/MFC reason C. krusei CBS 573 (Candida krusei CBS 573) | MIC/MFC reason C. albicans CBS 562 (Candida albicans CBS 562) | MIC/MFC reason C. tropicalis CBS 94 [1] | MIC [2] [µM] | also measured
CC[C@H](C)C[C@H](C)CCCCCCCCC(=O)N[C@H]1C[C@@H](O)[C@@H](NCCN)NC(=O)[C@@H]2[C@@H](O)CCN2C(=O)[C@H]([C@H](O)CCN)NC(=O)[C@H]([C@H](O)[C@@H](O)c2ccc(O)cc2)NC(=O)[C@@H]2C[C@@H](O)CN2C(=O)[C@H]([C@@H](C)O)NC1=O [Caspofungin, reference compound] | – | – | – | – | – | – | – | – | – | MIC (C. albicans CBS 562; CBS562, read-out: MIC With sorbitol): 1 mg/L (≈ 0.915 µM); MIC (C. albicans CBS 562; CBS562, read-out: MIC Without sorbitol): 0.015 mg/L (≈ 0.0137 µM)
COc1cc(/C=C/C(=O)NCC(C)C)ccc1O [Compound 2, (E)-3-(4-hydroxy-3-methoxyphenyl)-N-isobutylacrylamide] | > 25 µg/mL and > 100 µM | > 25 µg/mL and > 100 µM | > 25 µg/mL and > 100 µM | > 25 µg/mL and > 100 µM | 75 to 81 | – | – | – | – | –
COc1ccc(/C=C/C(=O)N2CCCC2)cc1O [Compound 3, (E)-3-(3-hydroxy-4-methoxyphenyl)-1-(pyrrolidin-1-yl)prop-2-en-1-one] | > 25 µg/mL and > 95.7 µM | > 25 µg/mL and > 95.7 µM | > 25 µg/mL and > 95.7 µM | > 25 µg/mL and > 95.7 µM | 158 to 162 | – | – | – | – | –
COc1cccc2c1C(=O)c1c(O)c3c(c(O)c1C2=O)C[C@@](O)(C(=O)CO)C[C@@H]3O[C@H]1C[C@H](N)[C@H](O)[C@H](C)O1 [DOX, Doxorubicin, reference compound] | 0.02 µg/mL and 40 nM | 0.03 µg/mL and 60 nM | 0.01 µg/mL and 20 nM | 1 µg/mL and 1.84 µM | – | – | – | – | – | –
C[C@@H]1[C@H](O)[C@@H](C)/C=C/C=C/CC/C=C/C=C/C=C/C=C/C(O[C@H]2O[C@H](C)[C@@H](O)[C@H](N)[C@@H]2O)CC2O[C@](O)(CC(O)C(O)CCC(O)CC(O)CC(O)CC(=O)O[C@H]1C)CC(O)C2C(=O)O (stereo partly shown) [Nystatin, reference compound] | – | – | – | – | – | 1 | 1 | 1 | 4.3 (≈ 3.98 µg/mL) | MIC Without ergosterol (C. albicans; absence of ergosterol): 3.75 mg/L (≈ 4.05 µM); MIC With ergosterol (C. albicans; exogenous ergosterol at 400 μg/mL): 31.25 mg/L (≈ 33.7 µM); MFC [2]: 4.3 µM (≈ 3.98 µg/mL)
(E)-3-(3-hydroxy-4-methoxyphenyl)-N-(4-methoxybenzyl)acrylamide [Compound 8] | – | – | – | – | – | 1 | 1 | 1 | 1590 | IC50 (HCT116; 72 h): > 79.8 µM; IC50 HCT116 (HCT116; 72 h): >25 mg/L; IC50 (HL-60; 72 h): 70.3 µM; IC50 (HepG2 cells; 72 h): 64.7 µM; IC50 HEPG2 (HepG2 cells; 72 h): 20.27 (15.94–25.77) μg/mL; IC50 (MRC5; 72 h): 53.2 µM; IC50 MRC5 (MRC5; 72 h): 16.69 (13.18–21.13) μg/mL
